Consider 20 compounds from ChEMBL document CHEMBL5137041, “Total Syntheses and Cytotoxicity Evaluation of Coryaurone A and Representative Analogues” (J Nat Prod, 2022).

SMILES strings stand for the structures.

Experiment [1] has as its system HL-60. The experiment in a line: Cytotoxicity against human HL-60 cells assessed as cell growth inhibition incubated for 48 hrs by MTS assay. In kind it is functional, cell-based. The note with it: HL-60, 48 h. On the technique in general: Tetrazolium dyes change colour on reduction, which living cells bring about.
The subject of experiment [2] is SW480. The experiment in a line: Cytotoxicity against human SW480 cells assessed as cell growth inhibition incubated for 48 hrs by MTS assay. Format: functional, cell-based. The note with it: SW480, 48 h.

What is called IC50 is the concentration at which inhibition is half-maximal. As for `CC(C)(O)[C@H]1Cc2c(ccc3c2O/C(=C\c2ccc(O)c(O)c2)C3=O)O1`, the IC50 in experiment [1] was 18 µM; in experiment [2], 13 µM.
On to `CC(C)(O)[C@H]1Cc2c(ccc3c2O/C(=C\c2cccc4cccnc24)C3=O)O1`, for which the IC50 in experiment [1] and in experiment [2] was above 40 µM in each case.
Take `CC(C)(O)[C@H]1Cc2c(ccc3c2O/C(=C\c2ccc(Cl)cc2)C3=O)O1`: the IC50 is above 40 µM in experiment [1] and 7.7 µM in experiment [2].
Taken in the same sequence, the figures for `COc1ccc(/C=C2\Oc3c(ccc4c3C[C@H](C(C)(C)O)O4)C2=O)cc1` were above 40 µM and above 40 µM.
On to `CC(C)(O)[C@H]1Cc2c(ccc3c2O/C(=C\c2ccc(O)c(Cl)c2)C3=O)O1`, for which the IC50 turned out to be 14 µM in experiment [1] and 35 µM in experiment [2].
Regarding `CC(C)(O)[C@H]1Cc2c(ccc3c2O/C(=C\c2ccco2)C3=O)O1`, the IC50 in experiment [1] turned out to be 28 µM; in experiment [2], 39 µM.
Taken in the same sequence, the figures for `CC(C)(O)[C@H]1Cc2c(ccc3c2OCC3=O)O1` were above 40 µM and above 40 µM.
Regarding `CC(C)(O)[C@H]1Cc2c(ccc3c2OC(Cc2ccc(O)c(O)c2)C3)O1` (stereo not given in full), the IC50 in experiment [1] and in experiment [2] was above 40 µM each time.
Consider `CC(C)(O)[C@H]1Cc2c(ccc3c2O/C(=C\c2ccc(O)c(C(=O)O)c2)C3=O)O1`, for which the IC50 in experiment [1] and in experiment [2] was above 40 µM throughout.
Regarding `Cc1cc(/C=C2\Oc3c(ccc4c3C[C@H](C(C)(C)O)O4)C2=O)ccc1O`, the IC50 is above 40 µM in experiment [1] and 11 µM in experiment [2].
With `CC(C)(O)[C@H]1Cc2c(ccc3c2O/C(=C\c2ccc(O)cc2)C3=O)O1`, the IC50 in experiment [1] and in experiment [2] was above 40 µM throughout.
Consider `COc1ccc(/C=C2\Oc3c(ccc4c3C[C@H](C(C)(C)O)O4)C2=O)cc1O`, for which the results for the IC50 in experiment [1] and in experiment [2] were 3.9 µM and 20 µM, respectively.
With `CC(C)(O)[C@H]1Cc2c(ccc3c2O/C(=C\c2ccc(C(F)(F)F)cc2)C3=O)O1`, the IC50 in experiment [1] was 16 µM; in experiment [2], above 40 µM.
Taken in the same sequence, the figures for `CC(C)(O)[C@H]1Cc2c(ccc3c2O/C(=C\c2ccccc2)C3=O)O1` were above 40 µM and above 40 µM.
Taken in the same sequence, the figures for `CC(C)(O)[C@H]1Cc2c(ccc3c2O/C(=C\c2cc([N+](=O)[O-])ccc2O)C3=O)O1` were 12 µM and 23 µM.
Turning to `CC(C)(O)[C@H]1Cc2c(ccc3c2O/C(=C\c2ccc([N+](=O)[O-])cc2)C3=O)O1`, the IC50 was above 40 µM in experiment [1] and 9.2 µM in experiment [2].
For `CC(C)(O)[C@H]1Cc2c(ccc3c2O/C(=C\c2ccc4[nH]ccc4c2)C3=O)O1`, the IC50 in experiment [1] and in experiment [2] was above 40 µM each time.
Regarding `CC(C)(O)[C@H]1Cc2c(ccc3c2O/C(=C\c2cccs2)C3=O)O1`, the IC50 in experiment [1] and in experiment [2] was above 40 µM in each case.
Turning to `COc1cc(/C=C2\Oc3c(ccc4c3C[C@H](C(C)(C)O)O4)C2=O)cc(OC)c1OC`, the IC50 in experiment [1] was 22 µM; in experiment [2], above 40 µM.
As to `CC(C)=CCc1c(O)ccc2c1O/C(=C\c1ccc(O)c(O)c1)C2=O` [LICOAGROAURONE], the IC50 in experiment [1] came out at 19 µM; in experiment [2], 8.2 µM.
